The results in this text go back to patent publication EP0144459A1, “Prostaglandins, their preparation and pharmaceutical compositions” (Dr. Willmar Schwabe GmbH & Co., priority 1983, dated 1985).

Assay [1] concerns isolierte Kaninchenaortastreifen. In words: Contractile effect on isolated rabbit aorta strips, dose-response compared with PGF2α (method of J.R. Vane). Details: species or system Kaninchen. Particulars: isolated rabbit aorta strip. An excerpt:
Zum Beispiel wurde die kontrahierende Wirkung von (15R)-12-epi-PGF2ß an einem isolierten Kaninchenaortastreifen mit der des natürlichen PGF2α verglichen. […] Die Wirkung dieser erfindungsgemäßen Verbindung setzt bei etwa 3-10^-6M/lein (vgl. Abb. 1). In dieser Konzentration ist das (15-S)-Epimere des 12 epi-PGF2ßunwirksam. [drawing]
Abb. 1 Kontraktile Wirkung von (15R)-12-epi-PGF2β (x) und PGF2α (.) auf isolierte Kaninchenaortastreifen in Abhängigkeit von der Dosis. (c = Konzentration; K = Kontraktionskraft) (Gemessen nach: J.R. Vane, Br.J. Pharmacol. Chemother. 23, 360-373 (1964)).

Assay [2] concerns Langendorff-Herz; isolierte Aorta - Tracheen- und Fundus-Streifen; Kreislauf von Meerschweinchen und Hund. In words: Battery of further pharmacological tests compared with PGF2α: Langendorff heart (coronary flow, heart rate, inotropy); isolated aorta, trachea and fundus strips; circulation of guinea pig and dog (blood pressure, heart rate). To be noted: in all tests of the battery, compared with natural PGF2α. An excerpt:
In mehreren anderen Tests wurden (15R)- und (15S)-12-epi-PGF2ß sowie die beiden analogen erfindungsgemäßen 15-Mithylverbindungen mit dem bekannten PGF2α verßlichen. […] Die 15-Methyl-Derivate der 12-epi-PGF2β zeigen analoge Unterschiede der Wirkungsqualität der jeweiligen 15Rund l5S-Epimeren.

As for `CCCCC[C@@H](O)/C=C/[C@H]1[C@@H](C/C=C\CCCC(=O)O)[C@H](O)C[C@H]1O` [(15R)-12-epi-PGF2β, 15R-12-epi-PGF2β], the “Wirkungsstärke (kontrahierende Wirkung) im Vergleich zu PGF2α” value in assay [1] (dose-response curve runs parallel to that of PGF2α) is “ca. eine Zehnerpotenz niedrigeren Wirkungsstärke”. In assay [1] (threshold concentration of the contractile effect (Abb. 1), read-out: Konzentration, bei der die kontrahierende Wirkung einsetzt), the minimal effective concentration is ~3 µM. Further, in assay [2], the Wirkungsqualität result is on record as “parallel zu den Wirkungen des natürlichen PGF2α”.

On to `CCCCC[C@H](O)/C=C/[C@H]1[C@@H](C/C=C\CCCC(=O)O)[C@H](O)C[C@H]1O` [(15S)-12-epi-PGF2β, 12-epi-PGF2β], for which the “kontrahierende Wirkung” value in assay [1] (at the concentration of about 3-10^-6M/l) was “unwirksam”. Further, the Wirkungsqualität entry in assay [2] was “PGE2-ähnliche Wirkung”.
